Like-named read-outs stand apart in the source and are kept apart here. Ends that are not written are not given here.
Test system: human umbilical vein endothelial cells HUVEC-C
Format: cell-based
Excerpt: Microarray Analysis. […] Total RNA was isolated followed by reverse transcription. Purified double stranded cDNA was in vitro transcribed in the presence of biotinylated dUTP and dCTP, fragmented cRNA was hybridized to the HG-U95Av2 array (Affymetrix, Santa Clara, Calif.), followed by staining with streptavidin-phycoerythrin. Arrays were scanned and analyzed using GeneChip3.1 software. […] An average fold-induction for the three independent experiments was obtained by calculating the means of the logarithm of the individual fold-increases for each agonist.

[1] = HUVEC-C, 90 min, genes represented in FIG. 2 A-C
[2] = HUVEC-C, 90 min, higher variability, PAR1 enhanced (<1.3 fold with PAR2 agonist)
[3] = HUVEC-C, 90 min, higher variability, PAR2 enhanced (<1.3 fold with PAR1 agonist)
[4] = HUVEC-C, 90 min, higher variability, genes not induced by APC (<1.3 fold with APC)

Substance: SLIGRL [PAR2, SLIGRL]
- Average fold induction, BIRC3 U45878 HUMAN INHIBITOR OF APOPTOSIS PROTEIN (IAP) 1: 1.41 fold
- Average fold induction, NAB1 AF045451 NGFIA-BINDING PROTEIN: 1.38 fold
- Average Induction, A1288757 qm11h01.x1 Homo sapiens cDNA [1]: 2.3 fold
- Average Induction, A1670788 tz10c02.x1 Homo sapiens cDNA [1]: 1.4 fold
- Average Induction, A1985272 ws06b05.x1 Homo sapiens cDNA [1]: 1.4 fold
- Average Induction, A8022718 Homo sapiens m.RNA for DEPP (decidual protein induced by progesterone) [1]: 2.0 fold
- Average Induction, AB004066 Homo sapiens mRNA for DEC1 [1]: 1.3 fold
- Average Induction, AB014569 Homo sapiens mRNA for K1AA0669 protein [1]: 2.0 fold
- Average Induction, AF017786 Homo sapiens phosphatidic acid phosphohydrolase homolog (Dri42) [1]: 1.6 fold
- Average Induction, AF022375 Homo sapiens vascular endothelial growth factor mRNA [1]: 1.3 fold
- Average Induction, AF039843 Homo sapiens Sprouty 2 (SPRY2) mRNA [1]: 1.8 fold
- Average Induction, AF045451 Homo sapiens transcriptional regulatory protein p54 [1]: 1.4 fold
- Average Induction, AF050110 Homo sapiens TGFb inducible early protein and early growth response protein alpha genes [1]: 1.4 fold
- Average Induction, AF054182 Homo sapiens mitochondrial processing peptidase beta-subunit mRNA [1]: 1.3 fold
- Average Induction, AF068197 Homo sapiens BCE-1 mRNA [1]: 1.8 fold
- Average Induction, AF078077 Homo sapiens growth arrest and DNA-damage-inducible protein GADD45beta [1]: 1.3 fold
- Average Induction, AJ005821 Homo sapiens mRNA for X-like 1 protein [1]: 1.6 fold
- Average Induction, AL023584 Human DNA sequence from clone 67K17 on chromosome 6q24.1-24.3. [1]: 2.0 fold
- Average Induction, AL031432 Human DNA sequence from clone 465N24 on chromosome 1p35.1-36.13. [1]: 2.6 fold
- Average Induction, AL050078 Homo sapiens mRNA; cDNA DKFZp566G0746 [1]: 1.6 fold
- Average Induction, AL096858 Novel human gene mapping to chomosome 1 [1]: 1.5 fold
- Average Induction, Cluster Incl M22489 Human bone morphogenetic protein 2A (BMP-2A) [1]: 2.9 fold
- Average Induction, Cluster Incl U12767 Human mitogen induced nuclear orphan receptor (MINOR) [1]: 3.4 fold
- Average Induction, D15050 Human mRNA for transcription factor AREB6 [1]: 1.7 fold
- Average Induction, D50917 Human mRNA for KIAA0127 gene [1]: 1.3 fold
- Average Induction, D78579 Homo sapiens mRNA for neuron derived orphan receptor [1]: 1.4 fold
- Average Induction, D86181 Homo sapiens DNA for galactocerebrosidase [1]: 1.5 fold
- Average Induction, Guanine Nucleotide Exchange Factor 2 [1]: 1.4 fold
- Average Induction, J02931 Human placental tissue factor (two forms) mRNA [1]: 2.7 fold
- Average Induction, J04076 Human early growth response 2 protein (EGR2) mRNA [1]: 2.0 fold
- Average Induction, J04111 Human c-jun proto oncogene (JUN) [1]: 1.5 fold
- Average Induction, L05072 Homo sapiens interferon regulatory factor 1 gene [1]: 2.0 fold
- Average Induction, L19871 Human activating transcription factor 3 (ATF3) [1]: 2.6 fold
- Average Induction, L43821 Homo sapiens enhancer of filamentation (HEF1) mRNA [1]: 1.2 fold
- Average Induction, M22489/FEATURE Human bone morphogenetic protein 2A (BMP-2A) [1]: 3.2 fold
- Average Induction, M26683 Human interferon gamma treatment inducible mRNA [1]: 1.0 fold
- Average Induction, M28211 Homo sapiens GTP-binding protein (RAB4) mRNA [1]: 2.7 fold
- Average Induction, M28225 Human JE gene encoding a monocyte secretory protein [= MCP-1] [1]: 1.1 fold
- Average Induction, M29039 Human transactivator (jun-B) gene [1]: 2.8 fold
- Average Induction, M30474 Human kidney gamma-glutamyl transpeptidase type II mRNA [1]: 2.1 fold
- Average Induction, M31516 Human decay-accelerating factor mRNA [1]: 1.9 fold
- Average Induction, M36820 Human cytokine (GRO-beta) mRNA [1]: 1.6 fold
- Average Induction, M59465 Human tumor necrosis factor alpha inducible protein A20 mRNA [1]: 1.3 fold
- Average Induction, M60278 Human heparin-binding EGF-like growth factor mRNA [1]: 3.9 fold
- Average Induction, M60721 Human homeobox gene [1]: 3.7 fold
- Average Induction, M69043 Homo sapiens MAD-3 mRNA encoding 1kB-like activity [1]: 1.4 fold
- Average Induction, M92843 H.sapiens zinc finger transcriptional regulator mRNA [1]: 3.4 fold
- Average Induction, S81439 EGR alpha=early growth response gene alpha [1]: 1.4 fold
- Average Induction, S81914 IEX-1=radiation-inducible immediate-early gene [1]: 1.2 fold
- Average Induction, U04636 Human cyclooxygenase-2 (hCox-2) gene [1]: 1.3 fold
- Average Induction, U07802 Human Tis1 1d gene [1]: 1.6 fold
- Average Induction, U08015 Human NF-ATc mRNA [1]: 2.0 fold
- Average Induction, U12767/FEATURE Human mitogen induced nuclear orphan receptor (MINOR) [1]: 3.3 fold
- Average Induction, U15932 Human dual-specificity protein phosphatase [1]: 3.3 fold
- Average Induction, U25997 Homo sapiens stanniocalcin precursor (STC) mRNA [1]: 1.4 fold
- Average Induction, U43142 Human vascular endothelial growth factor related protein VRP [1]: 1.9 fold
- Average Induction, U59863 Human TRAF-interacting protein I-TRAF mRNA [1]: 1.1 fold
- Average Induction, U75697 Human transcription regulator RPD3-2B mRNA [1]: 2.6 fold
- Average Induction, U79259 Human clone 23945 mRNA [1]: 1.7 fold
- Average Induction, U81607 Homo sapiens gravin mRNA [1]: 1.3 fold
- Average Induction, W27545 32c4 Homo sapiens cDNA [1]: 1.2 fold
- Average Induction, X51345 Human jun-B mRNA for JUN-B protein [1]: 1.8 fold
- Average Induction, X63741 H.sapiens pilot mRNA [1]: 3.0 fold
- Average Induction, X68277 H.sapiens CL 100 mRNA for protein tyrosine phosphatase [1]: 2.8 fold
- Average Induction, X75918 H.sapiens mRNA for NOT [1]: 3.3 fold
- Average Induction, X89066 H.sapiens mRNA for TRPC1 protein [1]: 2.2 fold
- Average Induction, X94216 H.sapiens mRNA for VEGF-C protein [1]: 2.1 fold
- Average Induction, Y00630 Human mRNA for Arg-Serpin (plasminogen activator-inhibitor 2, PAI-2) [1]: 1.7 fold
- Average Induction, Z25821 H.sapiens gene for mitochondrial dodecenoyl-CoA delta-isomerase [1]: 1.7 fold
- Average Induction, Z48054 H.sapiens mRNA for peroxisomal targeting signal 1 (SKL type) receptor [1]: 1.9 fold
- Average Induction, L13740 Human TR3 orphan receptor mRNA (HUVEC-C, 90 min, genes represented in FIG. 2 A-C, first probe set): 5.4 fold
- Average Induction, L13740 Human TR3 orphan receptor mRNA (HUVEC-C, 90 min, genes represented in FIG. 2 A-C, second probe set): 5.4 fold
- Average Induction, A1186701 qe82d12.x1 Homo sapiens cDNA [2]: 1.1 fold
- Average Induction, A1953789 wx69d10.x1 Homo sapiens cDNA [2]: 0.9 fold
- Average Induction, AF024710 Homo sapiens vascular endothelial growth factor (VEGF) [2]: 1.1 fold
- Average Induction, AL035297 H.sapiens gene from PAC 747L4 [2]: 1.0 fold
- Average Induction, M22299 Human T-plastin polypeptide mRNA [2]: 1.2 fold
- Average Induction, U35735 Human RACH1 (RACH1) mRNA [2]: 1.1 fold
- Average Induction, U87460 Human putative endothelin receptor type B-like protein mRNA [2]: 0.9 fold
- Average Induction, A1038821 ox96d03.x1 Homo sapiens cDNA [3]: 2.0 fold
- Average Induction, AC004475 Homo sapiens chromosome 19, cosmid F23858 [3]: 1.4 fold
- Average Induction, AL049354 Homo sapiens mRNA; cDNA DKFZp566E183 [3]: 1.3 fold
- Average Induction, L38696 Homo sapiens autoantigen p542 mRNA [3]: 1.3 fold
- Average Induction, U27655 Human RGP3 mRNA [3]: 1.5 fold
- Average Induction, U53831 Homo sapiens interferon regulatory factor 7B [3]: 1.5 fold
- Average Induction, U58334 Human Bcl2, p53 binding protein Bbp/53BP2 (BBP/53BP2) mRNA [3]: 1.5 fold
- Average Induction, U65093 Human msg1-related gene 1 (mrg1) mRNA [3]: 1.7 fold
- Average Induction, W26851 17b12 Homo sapiens cDNA [3]: 1.6 fold
- Average Induction, Y13115 Homo sapiens mRNA for serine/threonine protein kinase SAK [3]: 1.6 fold
- Average Induction, Z25821 H.sapiens gene for mitochondrial dodecenoyl-CoA delta-isomerase [3]: 1.7 fold
- Average Induction, AB028069 Homo sapiens mRNA for activator of S phase Kinase [4]: 2.0 fold
- Average Induction, D38537 Human mRNA for protoporphyrinogen oxidase [4]: 1.6 fold
- Average Induction, M83667 Human NF-IL6-beta protein [4]: 1.3 fold
- Average Induction, U78082 Human RNA polymerase transcriptional regulation mediator (h-MED6) mRNA [4]: 1.3 fold
- Average Induction, U85267 Homo sapiens down syndrome candidate region 1 (DSCR1) gene [4]: 2.0 fold

— US20040033517A1, “Compositions and methods relating to endothelial cell signaling using the protease activated receptor (PAR1)” (priority 2002, published 2004)
